Data from patent US5972946A, “Acetamide derivative, process for preparing the same, and a pharmaceutical composition containing the same” (Dainippon Pharmaceutical Co., Ltd., priority 1995, dated 1999).

Columns and labels:
[1] = Isoniazid-induced clonic convulsion test (anti-convulsant effect); type: in vivo, mouse (Std-ddY, male); settings: Mus musculus, 0.5 h; oral, 30 min before isoniazid 200 mg/kg s.c.; mice; read-out: Anti-isoniazid effect ED25 (dose which prolonged the onset time of clonic convulsion by 25%)
Text: Experiment 3: Isoniazid-induced clonic convulsion test (anti-convulsant effect)
Isoniazid inhibits glutamate decarboxylase which catalyzes GABA synthesis, deases brain GABA levels, and induces clonic convulsion. According to the method of Auta, J. et al. [cf. J. Pharmacol. Exp. Ther. 265, 649-656 (1993)] with slight modification, we examined antagonistic effect of the test compounds on isoniazid-induced clonic convulsion. […] Those are BZ anxiolytics represented by diazepam, neurosteroids such as allopregnanolone, allotetrahydrodeoxycortico-sterone(THDOC) and BZω3 receptor agonists which enhance the synthesis of neurosteroids.
Male mice of Std-ddY strain weighing 22-24 g were used in a group of 6. Thirty minutes after oral administration of the test compounds, mice were injected with isoniazid (200 mg/kg, s.c.), and immediately thereafter, placed individually in acrylic observation cages. The onset time of clonic convulsion was measured (cut-off time: 90 minutes). The latency in the control group was about 40 minutes.
Anti-isoniazid effect of the test compounds was expressed as the dose which prolonged the onset time by 25% compared to that in the vehicle group (ED25). The ED25 value was calculated according to the Litchfield-Wilcoxon's method.

[2] = target: peripheral (ω3) benzodiazepine (BZ) receptor (Rattus norvegicus, UniProt P16257); assay: BZω3 (peripheral-type) benzodiazepine receptor binding assay
Method: Experiment 1: Central (ω1, ω2) and peripheral (ω3) benzodiazepine (BZ) receptor binding assays
BZω1 and BZω2 receptor binding assays were carried out according to the method of Stephens, D. N. et al. [cf.
Receptor membrane fractions for ω1, ω2 and ω3 were prepared from the cerebellum (ω1), spinal cord (ω1) or kidney (ω3) in 7-8 week old male rats of Wistar strain by the procedure described below.
After the cerebellum or spinal cord was homogenized with 20 volumes of ice-cold 50 mM Tris-citrate buffer (pH 7.1), the homogenate was centrifuged for 15 minutes at 40,000 g. The pellet obtained was washed 4 times by the same procedure, frozen and stored for 24 hours at -60° C. The resulting pellet, after being thawed, washed with the buffer and centrifuged, was suspended in the buffer I for the binding assay (50 mM Tris-HCl buffer containing 120 mM NaCl, 5 mM KCl, 2 mM CaCl2 and 1 mM MgCl2 ; pH 7.4) and the suspension thus obtained (containing 1 g wet tissue/40 ml) was used for the BZω1 and BZω2 receptor binding assays. On the other hand, the kidney was homogenized with 20 volumes of the ice-cold buffer II for the binding assay (50 mM Na--K phosphate buffer containing 100 mM NaCl; pH 7.4), filtered through 4 sheets of gauze, and centrifuged for 20 minutes at 40,000 g. The pellet obtained was suspended in the buffer II and the suspension (containing 1 g wet tissue/100 ml) was used for the binding assay as BZω3 receptor membrane source.
Flumazenil (final concentration: 0.3 nM for (ω1 and 1 nM for ω2) and flunitrazepam (final concentration: 10 μM) were used for the BZω1 or BZω2 receptor binding assays as the isotope-labeled and unlabeled ligands, respectively. For the BZω3 receptor binding assay, [^3 H] 4'-chlorodiazepam (7-chloro-1,3-dihydro-1-methyl-5-(4-chlorophenyl)-2H-1,4-benzodiazepin-2-one) (final concentration: 0.5 nM) and diazepam (final concentration: 100 μM) were used as the isotope-labeled and unlabeled ligands, respectively. Incubation was performed for 30 minutes at 37° C. in the BZω1 or BZω2 receptor binding assays, and for 150 minutes at 0° C. in the BZω3 receptor binding assay. The BZω1 or BZω2 receptor binding assays were carried out in the presence of bicuculline (final concentration: 100 μM).
The binding assay was performed by the following procedure. After adding each test compound at certain known concentrations, a [^3 H] ligand and the buffer I or II to each test tube, each assay was started by addition of membrane preparation (total volume of 1 ml). After incubation, the assay was terminated by filtration with suction through a Whatman GF/B glass fiber filter using a cell harvester (Brandel, USA). The filters were rapidly washed 3 times with 5 ml of ice-cold 50 mM Tris-HCl buffer (pH 7.7) for ω1 and ω2, or the buffer II forω3, and transferred to scintillation vials containing 10 ml liquid scintillation cocktail (ACS-II, Amersham, USA). After a few hours, retained radioactivity was counted by a liquid scintillation spectrometer. Specific binding of [^3 H] ligands was calculated as the difference between amounts of radioactivity bound in the presence and absence of excess unlabeled ligands.

[3] = Light and dark box test (anti-anxiety effect); type: in vivo, mouse (Std-ddY, male); settings: Mus musculus, 0.5 h; oral, 30 min before test; mice; p<0.05 vs vehicle; read-out: Anti-anxiety effect MED (minimum effective dose)
Text: Experiment 2: Light and dark box test (anti-anxiety effect)
Anti-anxiety effect of test compounds was examined in a box with light and dark compartments according to the method of Crawley, J. and Goodwin, F. K. [cf. Pharmacol. Biochem. Behav. 13, 167-170 (1980)] with slight modification.
Light and dark box test is a useful, simple and handy method for behaviorally and pharmacologically examining anti-anxiety effect of the drugs, by utilizing the habit of rodents such as mice and rats, etc. which prefer to stay in a dark place, and regarding as positive drug effect the increase of the relative stay of the animals in the light compartment which is an uncomfortable place for the animals.
Light and dark box test was carried out using the test box device (35×15×17 cm) which comprises: a light compartment (20×15×17 cm) consisting of transparent acrylic plates and highly illuminated by an incandescent lamp (1,700 lux); a dark compartment (15×15×17 cm) being made of black acrylic plates connected to the light compartment; and at the boundary of compartments, an opening (4.4×5 cm) in which mice can go through freely between two compartments.
Male mice of Std-ddY strain weighing 25-30 g were used in a group of 10. Each trial was started by placing a mouse in the center of the light compartment 30 minutes after oral administration of a test compound, and the time spent by the mouse in the light compartment during a 5 minute observation period was measured, and the rate of the stay of mice in the light compartment to the whole time spent in the experiment was calculated. The increasing rate of the relative stay of the test compound to that of the vehicle control group was yielded, based on the rate of the stay of mice in the light compartment.
The anti-anxiety effect of the test compound was represented by the minimum effectivetive dose (MED) at which the increasing rate of the relative stay was regarded statistically as significant (Williams-Wilcoxon's test, p<0.05).

Structure (SMILES)	ED25 [1] [mg/kg]	IC50 [2] [nM]	minimal effective dose [3] [mg/kg]
C=CCN(C(=O)CNc1nc(-c2ccccc2)nc(C)c1C)c1ccccc1 [Example 58]	11.8	1.62	
CCN(CC)C(=O)CNc1nc(-c2ccc(OC)cc2)nc(C)c1C [Example 12]	31.8		
CCN(C(=O)CNc1nc(-c2ccccc2)nc(C)c1C)c1ccccc1 [Example 44]	22.4	4.98	
CCN(CC)C(=O)CNc1nc(-c2ccccc2)nc(C)c1C [Example 9]	25.5		0.3
CCCN(CCC)C(=O)COc1nc(-c2ccc(OC)cc2)nc(C)c1C [Example 139]		0.38	0.1
Cc1nc(-c2ccccc2)nc(NCC(=O)N2CC(C)OC(C)C2)c1C (stereo not drawn) [Example 66a, 2,6-Dimethyl-4-(5,6-dimethyl-2-phenyl-4-pyrimidinylamino)acetylmorpholine]	51.2		
CCN(C(=O)CNc1nc(-c2ccc([N+](=O)[O-])cc2)nc(C)c1C)c1ccccc1 [Example 50]	27.3		
Cc1nc(-c2ccccc2)nc(NCC(=O)N(CC2CC2)c2ccccc2)c1C [Example 61]	17.7	9.8	
Cc1nc(-c2ccc(F)cc2)nc(NCC(=O)N(C)c2ccccc2)c1C [Example 25]	62.1	1.93	
Cc1nc(-c2ccccc2)nc(NCC(=O)N(C)c2ccc(F)cc2)c1C [Example 35]	85.7	1.51	0.1
COc1ccc(-c2nc(C)c(C)c(OCC(=O)N(C)c3ccc(Cl)cc3)n2)cc1 [Example 150]			0.3
Cc1nc(-c2ccccc2)nc(NCC(=O)N(C)CC(C)C)c1C [Example 21]	72.1		0.1
Cc1nc(-c2ccc(Cl)cc2)nc(NCC(=O)N(C)c2ccc(F)cc2)c1C [Example 36, 2-[2-(4-Chlorophenyl)-5,6-dimethyl-4-pyrimidinylamino]-N-(4-fluorophenyl)-N-methylacetamide]	54.2	1.44	0.3
Cc1nc(-c2ccccc2)nc(NCC(=O)N2C[C@@H](C)O[C@@H](C)C2)c1C [Example 66b, cis-2,6-Dimethyl-4-(5,6-dimethyl-2-phenyl-4-pyrimidinylamino)acetylmorpholine]	72.4		
Cc1nc(-c2ccccc2)nc(OCC(=O)N2CC(C)OC(C)C2)c1C (stereo not drawn) [Example 171, 2,6-Dimethyl-4-(5,6-dimethyl-2-phenyl-4-pyrimidinyloxy)acetylmorpholine]	76.4	1.56	
Cc1nc(-c2ccccc2)nc(N2CCCC2C(=O)N(C)c2ccc(Cl)cc2)c1C (stereo not drawn) [Example 79, N-(4-chlorophenyl)-N-methyl-1-(5,6-dimethyl-2-phenyl-4-pyrimidinyl)-2-pyrrolidinecarboxamide]	43.8	0.87	
CCN(C(=O)CNc1nc(-c2ccc(F)cc2)nc(C)c1C)c1ccccc1 [Example 47]	7.62	0.16	
CCCN(C(=O)CNc1nc(-c2ccc(Cl)cc2)nc(C)c1C)c1ccccc1 [Example 53]	11.3		
CCN(CC)C(=O)CNc1nc(-c2ccc(F)cc2)nc(C)c1C [Example 11]	47.5		
Cc1nc(-c2ccccc2)nc(NCC(=O)N2CC(C)CC(C)C2)c1C (stereo not drawn) [Example 65, 3,5-Dimethyl-1-(5,6-dimethyl-2-phenyl-4-pyrimidinylamino)acetylpiperidine]	31.1	1.66	
CCN(C(=O)CNc1nc(-c2ccc(OC)cc2)nc(C)c1C)c1ccccc1 [Example 48]	7.67		
CCCN(CCC)C(=O)COc1nc(-c2ccccc2)nc2c1CCCC2 [Example 161]		1.05	
COc1ccc(N(C)C(=O)CNc2nc(-c3ccccc3)nc(C)c2C)cc1 [Example 41]		2.53	
Cc1nc(-c2ccccc2)nc(OCC(=O)N(CC2CC2)c2ccccc2)c1C [Example 190, N-cyclopropylmethyl-2-(5,6-dimethyl-2-phenyl-4-pyrimidinyloxy)-N-phenylacetamide]		4	
CCN(C(=O)COc1nc(-c2ccc([N+](=O)[O-])cc2)nc(C)c1C)c1ccccc1 [Example 164, N-ethyl-2-[5,6-dimethyl-2-(4-nitrophenyl)-4-pyrimidinyloxy]-N-phenylacetamide]		0.29	

Structure (SMILES)	ED25 [1] [mg/kg]	IC50 [2] [nM]	minimal effective dose [3] [mg/kg]
CN(C(=O)COc1nc(-c2ccc(Cl)cc2)nc2c1CCCC2)c1ccc(Cl)cc1 [Example 163]		2.64	
CCCN(CCC)C(=O)CNc1nc(-c2ccc(F)cc2)nc(C)c1C [Example 4]	51.2	4.36	
CN(C(=O)C1CCCN1c1nc(-c2ccccc2)nc2c1CCCC2)c1ccc(Cl)cc1 (stereo not drawn) [Example 120, N-(4-Chlorophenyl)-1-(5,6,7,8-tetrahydro-2-phenyl-4-quinazolinyl)-N-methyl-2-pyrrolidinecarboxamide 1/4 hydrate]		1.63	
CN(C(=O)CNc1nc(-c2ccccc2)nc2c1CCCC2)c1ccc(Cl)cc1 [Example 108]		1.21	
Cc1nc(-c2ccccc2)nc(NCC(=O)N(C)c2cccc(Cl)c2)c1C [Example 31]			0.3
CCN(C(=O)COc1nc(-c2ccccc2)nc(C)c1C)c1ccccc1 [Example 151]		0.58	
CN(C(=O)COc1nc(-c2ccccc2)nc2c1CCCC2)c1ccc(Cl)cc1 [Example 162]		1.19	
C=CCN(C(=O)CNc1nc(-c2ccc(Cl)cc2)nc(C)c1C)c1ccccc1 [Example 59]	14.8		
CCCN(CCC)C(=O)CNc1nc(-c2ccccc2)nc(C)c1CC [Example 83, 2-(5-ethyl-6-methyl-2-phenyl-4-pyrimidinylamino)-N,N-dipropylacetamide]	70.2	5.02	
CCCN(CCC)C(=O)COc1nc(-c2ccc([N+](=O)[O-])cc2)nc(C)c1C [Example 142]		0.08	
CCCN(CCC)C(=O)C1CCCN1c1nc(-c2ccccc2)nc2c1CCCC2 (stereo not drawn) [Example 119, 1-(5,6,7,8-Tetrahydro-2-phenyl-4-quinazolinyl)-N,N-dipropyl-2-pyrrolidinecarboxamide]		1.45	
CCCN(CCC)C(=O)C(C)Oc1nc(-c2ccccc2)nc2c1CCCC2 (stereo not drawn) [Example 169, 2-(5,6,7,8-tetrahydro-2-phenyl-4-quinazolinyloxy)-N,N-dipropylpropanamide]		1.15	
CCCN(CC)C(=O)CNc1nc(-c2ccccc2)nc(C)c1C [Example 17]	45.7	1.97	
CN(C(=O)COc1nc(-c2ccccc2)nc2c1CCCC2)c1ccccc1 [Example 180]		1.65	
CCCCN(CCCC)C(=O)CNc1nc(-c2ccc(F)cc2)nc2c1CCCC2 [Example 106]		4.24	
CCN(C(=O)COc1nc(-c2ccc(C(F)(F)F)cc2)nc(C)c1C)c1ccccc1 [Example 155]		0.76	
CCCN(CCC)C(=O)COc1nc(-c2ccc(F)cc2)nc(C)c1C [Example 138]		0.53	
CCCCN(C(=O)CNc1nc(-c2ccccc2)nc(C)c1C)c1ccccc1 [Example 57]		5.39	
CCCN(CCC)C(=O)CNc1nc(-c2ccc(OC)cc2)nc(C)c1C [Example 5]	15.1	1.28	
CCCCN(CCCC)C(=O)CNc1nc(-c2ccc(F)cc2)nc(C)c1C [Example 16]		4	0.1
C=CCN(C(=O)CNc1nc(-c2ccc(OC)cc2)nc(C)c1C)c1ccccc1 [Example 60]	2.14		
CCCN(CCC)C(=O)COc1cc(C(F)(F)F)nc(-c2ccccc2)n1 [Example 160]		4.3	
CCCN(CCC)C(=O)C1Cc2ccccc2N1c1nc(-c2ccccc2)nc(C)c1C (stereo not drawn) [Example 81, 2,3-dihydro-1-(5,6-dimethyl-2-phenyl-4-pyrimidinyl)-N,N-dipropyl-1H-indole-2-carboxamide]		6.9	
O=C(COc1nc(-c2ccccc2)nc2c1CCCC2)Nc1ccc(F)cc1 [Example 183]		8.75	
